This passage reports inhibition and IC50 results from PMC8708751, “Hit Identification of a Novel Quinazoline Sulfonamide as a Promising EphB3 Inhibitor: Design, Virtual Combinatorial Library, Synthesis, Biological Evaluation, and Docking Simulation Studies” (Pharmaceuticals, 2021).

Format in all cases: biochemical
One test has as its target T1, EphB2 (Homo sapiens, UniProt P29323).
T1 construct: purchased Reaction Biology Co. (Kinase HotSpot service)
T1 sequence (P29323 19-1055): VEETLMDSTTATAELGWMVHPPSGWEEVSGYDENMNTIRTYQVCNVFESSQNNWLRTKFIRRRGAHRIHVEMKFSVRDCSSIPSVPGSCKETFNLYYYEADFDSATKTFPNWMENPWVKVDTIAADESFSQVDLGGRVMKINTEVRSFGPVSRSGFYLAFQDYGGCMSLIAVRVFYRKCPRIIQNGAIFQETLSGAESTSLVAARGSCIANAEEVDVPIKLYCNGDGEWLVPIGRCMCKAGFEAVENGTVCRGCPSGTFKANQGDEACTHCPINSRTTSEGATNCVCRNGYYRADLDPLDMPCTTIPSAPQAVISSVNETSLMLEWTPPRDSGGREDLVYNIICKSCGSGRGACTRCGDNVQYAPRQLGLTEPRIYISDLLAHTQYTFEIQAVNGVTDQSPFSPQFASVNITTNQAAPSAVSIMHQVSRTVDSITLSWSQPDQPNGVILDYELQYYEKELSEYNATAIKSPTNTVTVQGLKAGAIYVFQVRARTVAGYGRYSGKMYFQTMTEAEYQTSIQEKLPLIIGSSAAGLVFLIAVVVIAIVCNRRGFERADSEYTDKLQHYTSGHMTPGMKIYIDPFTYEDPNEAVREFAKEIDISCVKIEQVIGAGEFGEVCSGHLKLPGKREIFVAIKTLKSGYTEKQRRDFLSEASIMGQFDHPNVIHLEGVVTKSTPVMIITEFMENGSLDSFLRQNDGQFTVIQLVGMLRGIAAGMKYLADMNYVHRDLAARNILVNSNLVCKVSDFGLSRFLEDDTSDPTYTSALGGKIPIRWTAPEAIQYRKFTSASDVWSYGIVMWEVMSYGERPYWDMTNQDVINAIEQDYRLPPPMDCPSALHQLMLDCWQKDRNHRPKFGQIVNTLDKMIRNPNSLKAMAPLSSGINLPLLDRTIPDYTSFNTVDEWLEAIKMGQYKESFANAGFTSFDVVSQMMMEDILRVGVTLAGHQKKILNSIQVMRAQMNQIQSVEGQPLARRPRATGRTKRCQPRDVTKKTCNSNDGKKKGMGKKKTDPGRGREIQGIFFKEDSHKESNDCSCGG
Nature of the test: Kinase panel assay, EphB2. The protocol:
[…]. A further dose-dependent assay was conducted to validate the selectivity of compound 4c over the EphB isoforms. […]. Accordingly, it could be considered as a promising selective inhibitor for EphB3 isoform.
(§1) The screening of the tested compounds was performed using the Kinase HotSpot^SM service from Reaction Biology Co. (http://www.reactionbiology.com, accessed on 25 September 2021). The HotSpot assay platform contains specific kinase/substrate pairs along with required cofactors. Base reaction buffer: 20 mM Hepes (pH 7.5), 10 mM MgCl2, 1 mM EGTA, 0.02% Brij35, 0.02 mg/mL BSA, 0.1 mM Na3VO4, 2 mM DTT, 1% DMSO. The tested compounds were dissolved in 100% DMSO to specific concentration. The serial dilution was conducted by Integra Viaflo Assist in DMSO (Sigma-Aldrich, Burlington, MA, USA). The reaction mixture containing the examined compound and 33P-ATP was incubated at room temperature for 2 h, and radioactivity was detected by filter-binding method. Kinase activity data were expressed as the percent remaining kinase activity in test samples compared to vehicle (dimethyl sulfoxide) reactions. IC50 values and curve fits were obtained using Prism (GraphPad Software, San Diego, CA, USA).

Another test addresses T2, EphB1 (Homo sapiens, UniProt P54762).
T2 construct: purchased Reaction Biology Co. (Kinase HotSpot service)
T2 sequence (P54762 18-984): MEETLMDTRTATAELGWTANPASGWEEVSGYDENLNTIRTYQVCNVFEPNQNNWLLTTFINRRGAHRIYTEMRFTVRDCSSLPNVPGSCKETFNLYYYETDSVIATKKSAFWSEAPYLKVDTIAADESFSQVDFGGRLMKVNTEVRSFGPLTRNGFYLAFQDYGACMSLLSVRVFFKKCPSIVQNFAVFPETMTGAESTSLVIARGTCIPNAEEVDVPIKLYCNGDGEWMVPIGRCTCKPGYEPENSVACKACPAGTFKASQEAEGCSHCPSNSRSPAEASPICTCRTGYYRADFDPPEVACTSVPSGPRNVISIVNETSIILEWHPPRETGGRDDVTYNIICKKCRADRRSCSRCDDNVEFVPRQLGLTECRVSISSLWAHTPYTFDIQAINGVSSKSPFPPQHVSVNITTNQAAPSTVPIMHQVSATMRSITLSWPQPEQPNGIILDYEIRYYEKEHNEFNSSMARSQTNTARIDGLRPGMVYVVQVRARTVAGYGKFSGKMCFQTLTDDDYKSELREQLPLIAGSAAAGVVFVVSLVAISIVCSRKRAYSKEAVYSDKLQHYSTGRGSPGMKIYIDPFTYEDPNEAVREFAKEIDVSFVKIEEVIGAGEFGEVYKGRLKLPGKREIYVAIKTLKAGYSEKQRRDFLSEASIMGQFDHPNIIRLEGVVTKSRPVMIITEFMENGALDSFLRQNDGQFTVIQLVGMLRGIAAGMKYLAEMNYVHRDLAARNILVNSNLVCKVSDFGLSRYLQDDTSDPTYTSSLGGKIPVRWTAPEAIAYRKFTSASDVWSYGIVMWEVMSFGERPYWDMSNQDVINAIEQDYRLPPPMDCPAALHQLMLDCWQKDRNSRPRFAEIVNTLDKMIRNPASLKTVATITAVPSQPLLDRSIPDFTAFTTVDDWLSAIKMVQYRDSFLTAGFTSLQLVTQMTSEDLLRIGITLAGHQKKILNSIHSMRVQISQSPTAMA
As to the kind of experiment: Kinase panel assay, EphB1. The protocol:
as §1, with “The” for “The screening of the tested compounds was performed using the Kinase HotSpot^SM service from Reaction Biology Co. (http://www.reactionbiology.com, accessed on 25 September 2021). The”

Another test has as its target T3, CDK2/cyclin A (Homo sapiens, UniProt P24941).
T3 construct: purchased Reaction Biology Co. (Kinase HotSpot service)
As to the kind of experiment: Kinase panel assay, CDK2/cyclin A. Conditions: read-out: Average % Enzyme Inhibition (Relative to DMSO Controls) at 10 µM. The protocol: as §1

On to `NS(=O)(=O)c1ccc(Nc2ncnc3ccc(-c4cccc(O)c4)cc23)cc1` [Compound 4c, 4-((6-(3-Hydroxyphenyl)quinazolin-4-yl)amino)benzenesulfonamide], for which the inhibition at 10 µM at EphB2 (EphB2, 10 µM, read-out: Average % Enzyme Inhibition (Relative to DMSO Controls) at 10 µM) turned out to be 76.32 ± 0.61%; at EphB1 (EphB1, 10 µM, read-out: Average % Enzyme Inhibition (Relative to DMSO Controls) at 10 µM) it was 58.9 ± 1.98%; on CDK2/cyclin A it was 75 ± 2.07%. Moreover, the IC50 was determined as 3.95 µM against EphB2 (EphB2, dose-dependent assay) and 5.86 µM against EphB1 (EphB1, dose-dependent assay).
